Source: patent publication US20230127839A1, “COMPOUNDS AND COMPOSITIONS FOR TREATING CONDITIONS ASSOCIATED WITH STING ACTIVITY” (IFM Due, Inc., priority 2019, published 2023)

Target: T1, hSTING (Homo sapiens, UniProt Q86WV6, G230A/H232R/R293Q/R71H)
T1 construct: host or cells: THP1-Dual KO-IFNAR2 cells
Experiment: STING reporter assay (luciferase) in THP1-Dual KO-IFNAR2 cells stimulated with 2'3'cGAMP
Format: cell-based
Settings: 2'3'cGAMP 15 μM, 24 h, luciferase reporter activity
Procedure, shortened: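 THP1-Dual KO-IFNAR2 cells (2×10E6 cells/mL) exposed to compounds at 0.0017-100 μM final, then stimulated with 2′3′cGAMP (15 μM final) delivered by Lipofectamine 2000 transfection. After 24 h at 37° C, secreted luciferase in supernatant read by QUANTI-Luc luminescence; EC50 calculated.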

T1 sequence (Q86WV6 whole entry R71H/G230A/H232R/R293Q): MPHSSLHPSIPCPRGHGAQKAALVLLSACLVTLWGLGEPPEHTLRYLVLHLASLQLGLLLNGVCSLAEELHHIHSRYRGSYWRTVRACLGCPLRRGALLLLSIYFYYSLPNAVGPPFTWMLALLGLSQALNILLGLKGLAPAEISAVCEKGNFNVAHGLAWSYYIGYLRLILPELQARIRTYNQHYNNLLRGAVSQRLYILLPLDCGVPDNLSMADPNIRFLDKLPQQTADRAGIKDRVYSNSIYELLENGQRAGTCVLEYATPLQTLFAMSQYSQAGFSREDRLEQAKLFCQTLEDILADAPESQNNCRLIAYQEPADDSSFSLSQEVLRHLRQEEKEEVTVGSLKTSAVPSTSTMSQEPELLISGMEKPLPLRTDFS

EC50 [nM] | SMILES
1000 to 5000 | O=C(Nc1cnc(N2CC3(C2)CC(F)(F)C3)c(Cl)c1)Nc1c[nH]c2c(Br)cc(Cl)cc12 [Compound 244, 1-(7-bromo-5-chloro-1H-indol-3-yl)-3-(5-chloro-6-(6,6-difluoro-2-azaspiro[3.3]heptan-2-yl)pyridin-3-yl)urea]
40 to 200 | O=C(Nc1cnc(N2CCN(CCC(F)(F)F)CC2)c(Cl)c1)Nc1c[nH]c2ccc(F)cc12 [Compound 245, 1-(5-chloro-6-(4-(3,3,3-trifluoropropyl)piperazin-1-yl)pyridin-3-yl)-3-(5-fluoro-1H-indol-3-yl)urea]
40 to 200 | O=C(Nc1ccc(C2CC(F)(F)C2)c(Cl)c1)Nc1c[nH]c2ccccc12 [Compound 246, 1-(3-chloro-4-(3,3-difluorocyclobutyl)phenyl)-3-(1H-indol-3-yl)urea]
200 to 1000 | O=C(Nc1cnc(C2CCC(F)(F)CC2)c(Cl)c1)Nc1c[nH]c2c(Br)cc(Cl)cc12 [Compound 247, 1-(7-bromo-5-chloro-1H-indol-3-yl)-3-(5-chloro-6-(4,4-difluorocyclohexyl)pyridin-3-yl)urea]
40 to 200 | O=C(Nc1cnc(C2CCC(F)(F)CC2)c(Cl)c1)Nc1c[nH]c2ccccc12 [Compound 248, 1-(5-chloro-6-(4,4-difluorocyclohexyl)pyridin-3-yl)-3-(1H-indol-3-yl)urea]
200 to 1000 | O=C(Nc1cnc(N2CC3(CN(CC(F)(F)F)C3)C2)c(F)c1)Nc1c[nH]c2ccc(Cl)cc12 [Compound 249, 1-(5-chloro-1H-indol-3-yl)-3-(5-fluoro-6-(6-(2,2,2-trifluoroethyl)-2,6-diazaspiro[3.3]heptan-2-yl)pyridin-3-yl)urea]
200 to 1000 | O=C(Nc1cnc(N2CC3(CN(CC(F)(F)F)C3)C2)c(Cl)c1)Nc1c[nH]c2ccccc12 [Compound 250, 1-(5-chloro-6-(6-(2,2,2-trifluoroethyl)-2,6-diazaspiro[3.3]heptan-2-yl)pyridin-3-yl)-3-(1H-indol-3-yl)urea]
40 to 200 | O=C(Nc1cnc(N2CCN(CC(F)(F)F)CC2)c(F)c1)Nc1c[nH]c2cc(F)c(F)cc12 [Compound 251, 1-(5,6-difluoro-1H-indol-3-yl)-3-(5-fluoro-6-(4-(2,2,2-trifluoroethyl)piperazin-1-yl)pyridin-3-yl)urea]
200 to 1000 | O=C(Nc1ccc(N2CCN(CCC(F)(F)F)CC2)nc1)Nc1c[nH]c2ccc(F)cc12 [Compound 252, 1-(5-fluoro-1H-indol-3-yl)-3-(6-(4-(3,3,3-trifluoropropyl)piperazin-1-yl)pyridin-3-yl)urea]
200 to 1000 | O=C(Nc1ccc(N2CCN(CC(F)(F)F)CC2)nc1)Nc1c[nH]c2ccc(F)cc12 [Compound 253, 1-(5-fluoro-1H-indol-3-yl)-3-(6-(4-(2,2,2-trifluoroethyl)piperazin-1-yl)pyridin-3-yl)urea]
200 to 1000 | O=C(Nc1ccnc(C2CCC(F)(F)CC2)c1)Nc1c[nH]c2ccccc12 [Compound 254, 1-(2-(4,4-difluorocyclohexyl)pyridin-4-yl)-3-(1H-indol-3-yl)urea]
200 to 1000 | O=C(Nc1ccnc(C2CCC(F)(F)CC2)c1)Nc1c[nH]c2ccc(Cl)cc12 [Compound 255, 1-(5-chloro-1H-indol-3-yl)-3-(2-(4,4-difluorocyclohexyl)pyridin-4-yl)urea]
200 to 1000 | O=C(Nc1cncc(C2CCC(F)(F)CC2)c1)Nc1c[nH]c2ccc(Cl)cc12 [Compound 256, 1-(5-chloro-1H-indol-3-yl)-3-(5-(4,4-difluorocyclohexyl)pyridin-3-yl)urea]
40 to 200 | N#Cc1cc(NC(=O)Nc2c[nH]c3ccc(Cl)cc23)cnc1C1CC(F)(F)C1 [Compound 257, 1-(5-chloro-1H-indol-3-yl)-3-(5-cyano-6-(3,3-difluorocyclobutyl)pyridin-3-yl)urea]
200 to 1000 | CN(C(=O)Nc1c[nH]c2ccc(Cl)cc12)c1cnc(N2CCC(F)(F)CC2)c(Cl)c1 [Compound 258, 3-(5-chloro-1H-indol-3-yl)-1-(5-chloro-6-(4,4-difluoropiperidin-1-yl)pyridin-3-yl)-1-methylurea]
40 to 200 | O=C(Nc1cnc(N2CCN(CC3CC3)CC2)c(Cl)c1)Nc1c[nH]c2ccc(Cl)cc12 [Compound 260, 1-(5-chloro-1H-indol-3-yl)-3-(5-chloro-6-(4-(cyclopropylmethyl)piperazin-1-yl)pyridin-3-yl)urea]
40 to 200 | O=C(Nc1cnc(N2CCN(CC(F)F)CC2)c(Cl)c1)Nc1c[nH]c2ccc(Cl)cc12 [Compound 261, 1-(5-chloro-1H-indol-3-yl)-3-(5-chloro-6-(4-(2,2-difluoroethyl)piperazin-1-yl)pyridin-3-yl)urea]
40 to 200 | O=C(Nc1cnc(N2CC3(CN(CC(F)(F)F)C3)C2)c(Cl)c1)Nc1c[nH]c2ccc(Cl)cc12 [Compound 262, 1-(5-chloro-1H-indol-3-yl)-3-(5-chloro-6-(6-(2,2,2-trifluoroethyl)-2,6-diazaspiro[3.3]heptan-2-yl)pyridin-3-yl)urea]
200 to 1000 | CC1(C)OCC(c2ncc(NC(=O)Nc3c[nH]c4ccccc34)cc2Cl)CO1 [Compound 263, 1-(5-chloro-6-(2,2-dimethyl-1,3-dioxan-5-yl)pyridin-3-yl)-3-(1H-indol-3-yl)urea]

EC50 [nM] | SMILES
40 to 200 | CC1(C)OCC(c2ncc(NC(=O)Nc3c[nH]c4ccc(Cl)cc34)cc2Cl)CO1 [Compound 264, 1-(5-chloro-1H-indol-3-yl)-3-(5-chloro-6-(2,2-dimethyl-1,3-dioxan-5-yl)pyridin-3-yl)urea]
40 to 200 | COC(=O)c1cc(NC(=O)Nc2c[nH]c3ccccc23)cnc1C1CCC(F)(F)CC1 [Compound 265, methyl 5-(3-(1H-indol-3-yl)ureido)-2-(4,4-difluorocyclohexyl)nicotinate]
40 to 200 | O=C(Nc1cnc(N2CCN(CC(F)(F)F)CC2)c(Cl)c1)Nc1c[nH]c2ccc(F)cc12 [Compound 266, 1-(5-chloro-6-(4-(2,2,2-trifluoroethyl)piperazin-1-yl)pyridin-3-yl)-3-(5-fluoro-1H-indol-3-yl)urea]
40 to 200 | O=C(Nc1cnc(N2CCN(CCC(F)(F)F)CC2)c(F)c1)Nc1c[nH]c2ccc(F)cc12 [Compound 267, 1-(5-fluoro-1H-indol-3-yl)-3-(5-fluoro-6-(4-(3,3,3-trifluoropropyl)piperazin-1-yl)pyridin-3-yl)urea]
40 to 200 | O=C(Nc1cnc(C2CCN(CC(F)(F)F)CC2)c(Cl)c1)Nc1c[nH]c2ccc(F)cc12 [Compound 268, 1-(5-chloro-6-(1-(2,2,2-trifluoroethyl)piperidin-4-yl)pyridin-3-yl)-3-(5-fluoro-1H-indol-3-yl)urea]
40 to 200 | O=C(Nc1cnc(N2CCN(CC(F)(F)F)CC2)c(Cl)c1)Nc1c[nH]c2cc(F)c(F)cc12 [Compound 269, 1-(5-chloro-6-(4-(2,2,2-trifluoroethyl)piperazin-1-yl)pyridin-3-yl)-3-(5,6-difluoro-1H-indol-3-yl)urea]
40 to 200 | O=C(Nc1cnc(C2CCN(CC(F)(F)F)CC2)c(F)c1)Nc1c[nH]c2ccc(F)cc12 [Compound 270, 1-(5-fluoro-1H-indol-3-yl)-3-(5-fluoro-6-(1-(2,2,2-trifluoroethyl)piperidin-4-yl)pyridin-3-yl)urea]
200 to 1000 | O=C(Nc1cnc(C2CCN(CC(F)(F)F)CC2)c(F)c1)Nc1c[nH]c2ccccc12 [Compound 271, 1-(5-fluoro-6-(1-(2,2,2-trifluoroethyl)piperidin-4-yl)pyridin-3-yl)-3-(1H-indol-3-yl)urea]
40 to 200 | O=C(Nc1ccc(C2CC(F)(F)C2)c(F)c1)Nc1c[nH]c2ccc(F)cc12 [Compound 272, 1-(4-(3,3-difluorocyclobutyl)-3-fluorophenyl)-3-(5-fluoro-1H-indol-3-yl)urea]
200 to 1000 | O=C(Nc1ccc(N2CCC(F)(F)CC2)nc1)Nc1c[nH]c2ccc(F)cc12 [Compound 273, 1-(6-(4,4-difluoropiperidin-1-yl)pyridin-3-yl)-3-(5-fluoro-1H-indol-3-yl)urea]
40 to 200 | O=C(Nc1cnc(N2CCC(F)(F)CC2)c(F)c1)Nc1c[nH]c2ccc(F)cc12 [Compound 274, 1-(6-(4,4-difluoropiperidin-1-yl)-5-fluoropyridin-3-yl)-3-(5-fluoro-1H-indol-3-yl)urea]
40 to 200 | O=C(Nc1cnc(N2CCC3(CC2)CC(F)(F)C3)c(Cl)c1)Nc1c[nH]c2ccc(Cl)cc12 [Compound 275, 1-(5-chloro-1H-indol-3-yl)-3-(5-chloro-6-(2,2-difluoro-7-azaspiro[3.5]nonan-7-yl)pyridin-3-yl)urea]
200 to 1000 | Cc1cc(NC(=O)Nc2c[nH]c3ccccc23)cnc1C1CCN(CC(F)(F)F)CC1 [Compound 276, 1-(1H-indol-3-yl)-3-(5-methyl-6-(1-(2,2,2-trifluoroethyl)piperidin-4-yl)pyridin-3-yl)urea]
40 to 200 | O=C(Nc1cnc(C2CC(F)(F)C2)c(Cl)c1)Nc1c[nH]c2ccc(F)cc12 [Compound 277, 1-(5-chloro-6-(3,3-difluorocyclobutyl)pyridin-3-yl)-3-(5-fluoro-1H-indol-3-yl)urea]
200 to 1000 | O=C(Nc1cnc(N2CCN(CC(F)(F)F)CC2)c(F)c1)Nc1c[nH]c2ccccc12 [Compound 278, 1-(5-fluoro-6-(4-(2,2,2-trifluoroethyl)piperazin-1-yl)pyridin-3-yl)-3-(1H-indol-3-yl)urea]
40 to 200 | O=C(Nc1cnc(C2CCN(CC(F)(F)F)CC2)c(Cl)c1)Nc1c[nH]c2ccccc12 [Compound 279, 1-(5-chloro-6-(1-(2,2,2-trifluoroethyl)piperidin-4-yl)pyridin-3-yl)-3-(1H-indol-3-yl)urea]
200 to 1000 | O=C(Nc1ccc(N2CCN(CC(F)(F)F)CC2)nc1)Nc1c[nH]c2ccccc12 [Compound 280, 1-(1H-indol-3-yl)-3-(6-(4-(2,2,2-trifluoroethyl)piperazin-1-yl)pyridin-3-yl)urea]
40 to 200 | O=C(Nc1cnc(N2CCC3(CCCCO3)CC2)c(Cl)c1)Nc1c[nH]c2ccccc12 [Compound 281, 1-(5-chloro-6-(1-oxa-9-azaspiro[5.5]undecan-9-yl)pyridin-3-yl)-3-(1H-indol-3-yl)urea]
